Assay results reported in ChEMBL document CHEMBL1131737, “An efficient stereoselective synthesis of [3S(1S,9S)]-3-[[[9-(benzoylamino) octahydro-6,10-dioxo-6H-pyridazino-(1,2-a)(1,2)-diazepin-1-yl]-carbonyl ]amino]-4-oxobutanoic acid, an interleukin converting enzyme (ICE) inhibitor” (Bioorg Med Chem Lett, 1999).
The source made the active and inactive calls. No cut-off for these calls is given here.

Molecular target: T1, Caspase-1 (Homo sapiens) (UniProt P29466)
T1 sequence (whole entry): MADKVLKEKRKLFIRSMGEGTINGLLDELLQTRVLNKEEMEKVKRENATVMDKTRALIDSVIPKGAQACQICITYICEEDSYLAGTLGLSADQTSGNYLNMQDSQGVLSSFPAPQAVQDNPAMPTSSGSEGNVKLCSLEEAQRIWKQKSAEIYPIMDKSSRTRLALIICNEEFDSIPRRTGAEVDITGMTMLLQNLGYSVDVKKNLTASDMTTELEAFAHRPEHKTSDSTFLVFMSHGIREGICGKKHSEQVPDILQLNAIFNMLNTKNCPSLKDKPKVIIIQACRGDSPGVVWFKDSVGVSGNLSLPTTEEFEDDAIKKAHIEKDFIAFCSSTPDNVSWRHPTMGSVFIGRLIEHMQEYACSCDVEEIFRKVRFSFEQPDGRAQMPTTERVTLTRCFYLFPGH
Test: Inhibitory activity against IL-1 beta converting enzyme; Active

- Activity: Active
SMILES: O=C[C@H](CC(=O)O)NC(=O)[C@@H]1CCCN2C(=O)CC[C@H](NC(=O)c3ccccc3)C(=O)N12
